Data reported in patent US9963506B2, “Human-mouse chimeric anti-CD147 antibody with non-fucosylated glycosylation” (Fourth Military Medical University, priority 2015, dated 2018).

Tests used:
A549 cells = assay: Subcutaneous xenograft model, tumor growth inhibition; type: in vivo, SCID mice; details: tail vein
Procedure: (§1) Mice injected with A549 cells subcutaneously in the right dorsal flank were treated by intravenous saline; 2 mg/kg Cisplatin and 100 mg/kg Gemcitabine; Metuzumab infusion at 2 mg/kg, 10 mg/kg and 30 mg/kg; combination of 10 mg/kg Metuzumab with 2 mg/kg Cisplatin and 100 mg/kg Gemcitabine; wherein the antibodies were injected twice weekly for 3 week consecutively, while the chemotherapeutic agents were injected once a week for 3 weeks consecutively. The tumors were measured twice a week.
(§2) Animals were housed in specific pathogen-free (SPF) condition. For the localized subcutaneous xenograft mouse model, 1×10^6 NCI-H520 or A549 cells, suspended in Hank's balanced salt solution were implanted in the right dorsal flank of male SCID mice (6-8 week old). When tumors reached a mean volume of 100 mm^3, mice were randomized into treatment cohorts (n=10 mice per group). Mice were grouped for different treatments, including Metuzumab treatment groups treated with 2 mg/kg, 10 mg/kg and 30 mg/kg Metuzumab; chemistry treatment group treated with 2 mg/kg Cisplatin and 100 mg/kg Gemcitabine; combination treatment group treated with 10 mg/kg Metuzumab with 2 mg/kg Cisplatin and 100 mg/kg Gemcitabine, or saline (control group) via tail vein, respectively. Antibody injections were administered twice weekly, for 3 weeks consecutively; chemotherapeutic agents were administered once a week, for 3 weeks consecutively. Tumor size was measured twice each week for the duration of the study using calipers. Tumor volumes were determined using the following formula: […]. Antitumor activity was assessed by calculating inhibition ratio of tumor volumes (IRTV) based on medians by using following formula: [1−average (Ttreatment (day x)−Ttreatment (day 0))/average (Tcontrol (day x)−Tcontrol (day 0))]×100%.

NCI-H520 cells = assay: as above; type: in vivo, SCID mice; details: tail vein
Procedure: as §1, with “NCI-H520” for “A549”
as §2

[1] = 2 mg/kg twice weekly for 3 weeks
[2] = 10 mg/kg twice weekly for 3 weeks
[3] = 30 mg/kg twice weekly for 3 weeks

**Q.** Which results are given for “Metuzumab: human-mouse chimeric anti-CD147 IgG1, heavy chain SEQ ID NO: 4, light chain SEQ ID NO: 3, Mannose-5 glycoform lacking fucose and xylose”?
**A.** tumor volume inhibition rate (A549 cells; [1]): 14.78%; tumor volume inhibition rate (A549 cells; [2]): 26.52%; tumor volume inhibition rate (A549 cells; [3]): 50.64%; inhibition ratio of tumor volumes (IRTV) (NCI-H520 cells; [1]): 49.53%; inhibition ratio of tumor volumes (IRTV) (NCI-H520 cells; [2]): 53.34%; inhibition ratio of tumor volumes (IRTV) (NCI-H520 cells; [3]): 57.75%
